Test results from PubChem BioAssay (NCI).
Values joined by “and” are separate entries in the source; they are usually repeats but may differ in a detail not shown here. Equal values may be shown once.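 Protocol summary: plate cells (96-well), add compound at 5 concentrations, incubate 48 h, interpolate endpoints linearly. GI50: concentration for 50% inhibition of growth. TGI is the concentration that stops growth completely.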

Tested on: MDA-MB-468 breast
Assay: growth of human tumour cells (NCI), 48 h

Compound | GI50 | TGI
CCC(=O)OCC1OC(n2cnc3c(=S)nc(N)[nH]c32)C(OC(=O)CC)C1OC(=O)CC (configuration not stated) | 1.18 µM | 7.45 µM
CCOC(=O)c1cc(C(=O)c2cc(OC)cc(OC)c2)n2nc(C)ccc12 | 0.297 µM | > 100 µM
O=C1/C(=C/c2ccccc2[N+](=O)[O-])Oc2ccc(O)cc21 | 1.81 µM | 3.85 µM
COc1cc(C2CC(c3ccc(SC)cc3)=NN2C(C)=O)cc(OC)c1OC (configuration not stated) | 3.71 µM | 26.2 µM
Cc1ccc(N(CC(=O)Nc2ccc(S(=O)(=O)NC3CCN(C)CC3)cc2)S(=O)(=O)c2ccc(Cl)cc2)cc1 | 1.91 µM | 4 µM
COc1cc(/C=C/c2cc(/C=C/c3ccc(O)c(OC)c3)n(C(N)=O)n2)ccc1O | 0.298 µM | 1.52 µM
O=C1C(=O)/C(=C/c2ccccc2)CCCCCC/C1=C/c1ccccc1 | 3.62 µM | 17.7 µM
COC1=C(C)C(=O)N2[C@@H]1[C@H](c1ccccc1)OC21C=CC(=O)C=C1 | 2.54 µM | 9.24 µM
CCCCc1ccc(NS(=O)(=O)c2cc3c4c(c2)CCN4C(=O)CC3)cc1 | 4.5 µM | 94.2 µM
Oc1ccc(OCCOc2ccc(O)cc2)cc1 | 32.7 µM | > 100 µM
COc1cc(Nc2cc(O)c3c(=O)cc(-c4ccccc4)oc3c2)cc(OC)c1 | 0.279 µM | –
CN(C)CCCNc1nc2ccccc2c2c(=O)c3cc(F)ccc3sc12 | 0.675 µM | 2.16 µM
COc1cc(Nc2ncc3c(C)nc(-c4cccc(C(F)(F)F)c4)n3n2)cc(OC)c1OC | 2.81 µM | 5.98 µM
COc1cc(C(=O)/C=C/c2c(-c3cccs3)nc3sccn23)cc(OC)c1OC | 0.93 µM | 2.89 µM
N#Cc1cc(-c2ccnc(Nc3ccc(NC(=O)CCl)cc3)n2)ccc1N1CCCC1 | 3.4 µM | 7.13 µM
COc1cc2c(Oc3ccc4[nH]c(C)cc4c3F)ncnc2cc1OCCCN1CCCC1 | 1.32 µM | 3.06 µM
Cc1ccc(NC(=O)c2ccc(CN3CC[C@H](N(C)C)C3)c(C(F)(F)F)c2)cc1Nc1nccc(-c2cncnc2)n1 | 5.05 µM and 7.37 µM | 18.4 µM and > 10 µM

Compound | GI50 | TGI
O=C1NC(=O)/C(=C/c2ccc3ncccc3c2)S1 | 9.28 µM | > 25 µM
Fc1ccc(-c2cc3nc(C(Cl)Cl)nc(-c4cccs4)n3n2)cc1 | 0.219 µM | 0.666 µM
O=[N+]([O-])c1cc([N+](=O)[O-])c(NN=C(c2ccc(O)cc2)c2ccc(O)cc2)cc1Cl | 0.247 µM | 0.55 µM
CCN(Cc1cc(F)cc(F)c1)c1ccc(CO)c(Cl)c1 | 0.0187 µM | 0.0505 µM
COc1ccc(/C=C/C(=O)c2c(O)c(C)c(O)c3c2OC2=CC(O)=C(C(C)=O)C(=O)[C@]23C)cc1 | 1.35 µM | 5.01 µM
O=C(/C=C/c1c(-c2ccccc2)[nH]c2ccccc12)S(=O)(=O)c1ccccc1 | 1.98 µM | 8.75 µM
COc1cc(/C=C/[N+](=O)[O-])c([N+](=O)[O-])cc1OC | 1.02 µM | 2.3 µM
Cn1cc(-c2csc(-c3c[nH]c4ccc(F)cc34)n2)c2cccnc21 | 1.41 µM | 5.24 µM
O=C(c1ccc(Oc2ccccc2)cc1Cl)c1c[nH]c2ncnc(N[C@@H]3CC[C@@H](CO)OC3)c12 | 1.01 µM | 3.73 µM
CO[C@H]1/C=C/[C@@](C)(O)/C=C/C(=O)O[C@H](C)[C@@H](C)CC/C=C/1C | 8.45 µM | 31 µM
CC(c1ccccc1)N1C(=O)CSC1=S (configuration not stated) | 0.303 µM | > 100 µM
COc1cc(C=C2c3ccccc3C(=O)c3ccccc32)ccc1OCCCCOc1cc2c(cc1OC)C(=O)N1CCCC1C=N2 (configuration not stated) | 0.287 µM | 1.19 µM
COc1ccc(-c2cc(C(=O)N3N=C(c4ccc(N)cc4)CC3c3ccc(Cl)cc3)c3ccccc3n2)cc1 (configuration not stated) | 2.95 µM | > 100 µM
CCCCN1C=CCN(CCCC)C1 | 18.6 µM | 61.3 µM
COc1cc(/C=C/c2cc(/C=C/c3ccc(O)c(OC)c3)n(C(=O)Cc3ccccc3)n2)ccc1O | 1.17 µM | 4.58 µM
NCCCNc1nc2ccccc2c2c(=O)c3cccc(F)c3sc12 | 1.62 µM | 3.24 µM
COc1ccc([C@H]2[C@H](O)C(=O)N2c2cc(OC)c(OC)c(OC)c2)cc1 | < 0.01 µM | > 100 µM
